Assay results as given in patent US7109193B2, “Tricyclic diazepines tocolytic oxytocin receptor antagonists” (Wyeth, priority 2001, dated 2006).
Where a name gives a salt, the structure may show the parent alone.

Target: T1, human oxytocin receptor (Homo sapiens, UniProt P30559)
T1 construct: host or cells: CHO cells (pcDNA3.1 vector)
T1 sequence (P30559 1-389): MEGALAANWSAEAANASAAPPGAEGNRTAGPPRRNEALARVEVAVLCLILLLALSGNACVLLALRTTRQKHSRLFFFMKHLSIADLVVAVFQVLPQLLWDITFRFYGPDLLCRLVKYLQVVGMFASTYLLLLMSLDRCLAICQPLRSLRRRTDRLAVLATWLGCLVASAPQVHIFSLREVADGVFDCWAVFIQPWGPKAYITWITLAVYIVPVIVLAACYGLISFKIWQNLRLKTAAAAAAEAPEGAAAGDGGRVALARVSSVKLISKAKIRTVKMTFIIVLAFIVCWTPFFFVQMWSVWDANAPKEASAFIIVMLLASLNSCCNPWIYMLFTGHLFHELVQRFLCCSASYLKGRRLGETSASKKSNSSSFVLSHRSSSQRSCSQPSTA
Assay: Oxytocin binding in Chinese Hamster Ovary cell membranes expressing human oxytocin receptors
Conditions: 100 nM, CHO cell membranes, [3H]oxytocin, values without parentheses, read-out: OT % inhibition @ 100% nM

**Q.** For COc1cccc(-c2cc(OC)c(C(=O)N3Cc4ccc(C(=O)NCCCN(C)C)n4Cc4ccccc43)cc2Cl)c1 [Example 79, 10-[(6-Chloro-3,3′-dimethoxy[1,1′-biphenyl]-4-yl)carbonyl]-N-[3-(dimethylamino)propyl]-10,11-dihydro-5H-pyrrolo[2,1-c][1,4]benzodiazepine-3-carboxamide], which inhibition at 0.1 µM is on record?
**A.** 35%

**Q.** How did the inhibition at 0.1 µM turn out when COc1cc(C(=O)N2Cc3ccc(C(=O)NCCCN(C)C)n3Cc3ccccc32)ccc1-c1cccc2ccccc12 [Example 80, N-[3-(Dimethylamino)propyl]-10-[3-methoxy-4-(1-naphthyl)benzoyl]-10,11-dihydro-5H-pyrrolo[2,1-c][1,4]benzodiazepine-3-carboxamide] was run?
**A.** 44%

**Q.** For COc1ccccc1-c1ccc(C(=O)N2Cc3ccc(C(=O)NCCCN(C)C)n3Cc3ccccc32)cc1OC [Example 81, 10-[(2,2′-Dimethoxy[1,1′-biphenyl]-4-yl)carbonyl]-N-[3-(dimethylamino)propyl]-10,11-dihydro-5H-pyrrolo[2,1-c][1,4]benzodiazepine-3-carboxamide], which inhibition at 0.1 µM is on record?
**A.** 43%

**Q.** Which inhibition at 0.1 µM does the source give for COc1cccc(-c2ccc(C(=O)N3Cc4ccc(C(=O)NCCCN(C)C)n4Cc4ccccc43)cc2OC)c1 [Example 82, 10-[(2,3′-Dimethoxy[1,1′-biphenyl]-4-yl)carbonyl]-N-[3-(dimethylamino)propyl]-10,11-dihydro-5H-pyrrolo[2,1-c][1,4]benzodiazepine-3-carboxamide] here?
**A.** 50%

**Q.** With CN(C)CCCNC(=O)c1ccc2n1Cc1ccccc1N(C(=O)c1ccc(-c3cccc4ccccc34)cc1Cl)C2 [Example 83, 10-[2-Chloro-4-(1-naphthyl)benzoyl]-N-[3-(dimethylamino)propyl]-10,11-dihydro-5H-pyrrolo[2,1-c][1,4]benzodiazepine-3-carboxamide] as the compound, how does the inhibition at 0.1 µM read?
**A.** 10%

Same assay, conditions: CHO cell membranes, [3H]oxytocin, values in parentheses, read-out: OT (IC50)

**Q.** Which IC50 does the source give for Cc1cc(C(=O)N2Cc3ccc(C(=O)N4CCN(C)CC4)n3Cc3ccccc32)ccc1-c1ccccc1C(F)(F)F [Example 2, (4-Methyl-piperazin-1-yl)-[10-(2-methyl-2′-trifluoromethyl-[1,1′-biphenyl]-4-yl)-carbonyl]-10,11-dihydro-5H-pyrrolo[2,1-c][1,4]benzodiazepin-3-yl-methanone] here?
**A.** 12.5 nM

**Q.** With Cc1cc(C(=O)N2Cc3ccc(C(=O)N4CCN(CCCN(C)C)CC4)n3Cc3ccccc32)ccc1-c1ccccc1C(F)(F)F [Example 4, [4-(3-Dimethylaminopropyl)-piperazin-1-yl]-[10-(2-methyl-2′-trifluoromethyl-[1,1′-biphenyl]-4-yl)carbonyl]-[10,11-dihydro-5H-pyrrolo[2,1-c][1,4]benzodiazepin-3-yl]-methanone] as the compound, how does the IC50 read?
**A.** 8.89 nM

**Q.** With Cc1cc(C(=O)N2Cc3ccc(C(=O)N4CCNCC4)n3Cc3ccccc32)ccc1-c1ccccc1C(F)(F)F [Example 7, 10,11-Dihydro-10-[[2-methyl-2′-trifluoromethyl-[1,1′-biphenyl]-4-yl]carbonyl]-3-(1-piperazinylcarbonyl)-5H-pyrrolo[2,1-c][1,4]benzodiazepine hydrochloride salt] as the compound, how does the IC50 read?
**A.** 11.4 nM

**Q.** How did the IC50 turn out when Cc1cc(C(=O)N2Cc3ccc(C(=O)NC(=N)N)n3Cc3ccccc32)ccc1-c1ccccc1C(F)(F)F [Example 8, N-[(10-{[2-methyl-2′-(trifluoromethyl)[1,1′-biphenyl]-4-yl]carbonyl}-10,11-dihydro-5H-pyrrolo[2,1-c][1,4]benzodiazepin-3-yl)carbonyl]guanidine] was run?
**A.** 6.37 nM

**Q.** With COc1cc(-c2ccccc2C)ccc1C(=O)N1Cc2ccc(C(=O)N(C)CCCN(C)C)n2Cc2ccccc21 [Example 11, N-Methyl-N-[3-(dimethylamino)propyl]-10-[(3-methoxy-2′-methyl[1,1′-biphenyl]-4-yl)carbonyl]-10,11-dihydro-5H-pyrrolo[2,1-c][1,4]benzodiazepine-3-carboxamide] as the compound, how does the IC50 read?
**A.** 3.44 nM

**Q.** How did the IC50 turn out when COc1cc(-c2ccccc2F)c(Cl)cc1C(=O)N1Cc2cccn2Cc2ccccc21 [Example 18B, 10-{[6-Chloro-3-methoxy-2′-fluoro-[1,1′-biphenyl]-4-yl]carbonyl}-10,11-dihydro-5H-pyrrolo[2,1-c][1,4]benzodiazepine] was run?
**A.** 14.5 nM

**Q.** Which IC50 does the source give for COc1cc(C(=O)N2Cc3ccc(C(=O)N4CCC[C@H]4CN4CCCC4)n3Cc3ccccc32)ccc1-c1ccccc1C(F)(F)F [Example 20, {[10-(2-Methoxy)-2′-trifluoromethyl-[1,1′-biphenyl]-4-yl]carbonyl}-[(2S)-[(2-pyrrolidin-1-yl)methyl]pyrrolidin-1-yl]-10,11-dihydro-5H-pyrrolo[2,1-c][1,4]benzodiazepin-3-yl-methanone] here?
**A.** 1.81 nM

**Q.** How did the IC50 turn out when COc1cc(C(=O)N2Cc3ccc(C(=O)N(C)CCCN(C)C)n3Cc3ccccc32)ccc1-c1ccccc1C(F)(F)F [Example 21, N-Methyl-[N-(3-dimethylamino)propyl]-10-{[2-methoxy-2′-trifluoromethyl-[1,1′-biphenyl]-4-yl]carbonyl}-10,11-dihydro-5H-pyrrolo[2,1-c][1,4]benzodiazepin-3-carboxamide] was run?
**A.** 1.7 nM

**Q.** COc1cc(C(=O)N2Cc3ccc(C(=O)N(C)CCN(C)C)n3Cc3ccccc32)ccc1-c1ccccc1C(F)(F)F [Example 22, N-Methyl-[N-(2-dimethylamino)ethyl]-10-{[2-methoxy-2′-trifluoromethyl-[1,1′-biphenyl]-4-yl]carbonyl}-10,11-dihydro-5H-pyrrolo[2,1-c][1,4]benzodiazepine-3-carboxamide] was tested. Which IC50 did it give?
**A.** 1.74 nM

**Q.** How did the IC50 turn out when O=C(c1ccc(-c2cccc3ccccc23)cc1Cl)N1Cc2cccn2Cc2ccccc21 [Example 24, [2-Chloro-4-(naphthalen-1-yl)phenyl][10,11-dihydro-5H-pyrrolo[2,1-c][1,4]benzodiazepin-10-yl]methanone] was run?
**A.** 8 nM

**Q.** Cc1ccc(-c2ccc(C(=O)N3Cc4cccn4Cc4ccccc43)cc2)c2ccccc12 [Example 25, [4-(4-Methyl-naphthalen-1-yl)phenyl][10,11-dihydro-5H-pyrrolo[2,1-c][1,4]benzodiazepin-10-yl]methanone] was tested. Which IC50 did it give?
**A.** 55.8 nM

**Q.** Which IC50 does the source give for COc1cc(C(=O)N2Cc3cccn3Cc3ccccc32)ccc1-n1c(C)ccc1C [Example 27, [4-(2,5-Dimethyl-1-H-pyrrol-1-yl)-3-methoxy-phenyl][10,11-dihydro-5H-pyrrolo[2,1-c][1,4]benzodiazepin-10-yl]methanone] here?
**A.** 18.1 nM

**Q.** For O=C(c1ccc(-c2cccc3ccccc23)nc1)N1Cc2cccn2Cc2ccccc21 [Example 28, [6-(Naphthalen-1-yl)-pyridin-3-yl]-[10,11-dihydro-5H-pyrrolo[2,1-c][1,4]benzodiazepin-10-yl]methanone], which IC50 is on record?
**A.** 29.5 nM

**Q.** With COc1cc(-c2ccccc2C(F)(F)F)c(OC)cc1C(=O)N1Cc2cccn2Cc2ccccc21 [Example 32, 10-{[3,6-Dimethoxy-2′-trifluoromethyl-[1,1′-biphenyl]-4-yl]carbonyl}-10,11-dihydro-5H-pyrrolo[2,1-c][1,4]benzodiazepine] as the compound, how does the IC50 read?
**A.** 185 nM

**Q.** How did the IC50 turn out when COc1cc(-c2ccccc2Cl)c(Cl)cc1C(=O)N1Cc2ccc(C(=O)N(C)C3CCN(C)CC3)n2Cc2ccccc21 [Example 43, 10-[(2′-Chloro-6-chloro-3-methoxy-[1,1′-biphenyl]-4-yl)carbonyl]-N-methyl-N-(1-methylpiperidin-4-yl)-10,11-dihydro-5H-pyrrolo[2,1-c][1,4]benzodiazepine-3-carboxamide] was run?
**A.** 1.66 nM

**Q.** How did the IC50 turn out when COc1cc(-c2ccccc2C)c(Cl)cc1C(=O)N1Cc2ccc(C(=O)N3CCN(C)CC3)n2Cc2ccccc21 [Example 47, {10-[(6-Chloro-3-methoxy-2′-methyl[1,1′-biphenyl]-4-yl)carbonyl]-10,11-dihydro-5H-pyrrolo[2,1-c][1,4]benzodiazepin-3-yl}(4-methyl-1-piperazinyl)methanone] was run?
**A.** 6.61 nM

**Q.** COc1ccccc1-c1ccc(C(=O)N2Cc3ccc(C(=O)N4CCN(C)CC4)n3Cc3ccccc32)cc1 [Example 48, {10-[(2′-Methoxy[1,1′-biphenyl]-4-yl)carbonyl]-10,11-dihydro-5H-pyrrolo[2,1-c][1,4]benzodiazepin-3-yl}(4-methyl-1-piperazinyl)methanone] was tested. Which IC50 did it give?
**A.** 6.7 nM

**Q.** Which IC50 does the source give for Cc1cc(C(=O)N2Cc3ccc(C(=O)N4CCCN(C)CC4)n3Cc3ccccc32)ccc1-c1ccccc1C(F)(F)F [Example 59, (4-Methyl-1,4-diazepan-1-yl)(10-{[2-methyl-2′-(trifluoromethyl)[1,1′-biphenyl]-4-yl]carbonyl}-10,11-dihydro-5H-pyrrolo[2,1-c][1,4]benzodiazepin-3-yl)methanone] here?
**A.** 16.4 nM

**Q.** For COc1cc(-c2ccccc2C)c(Cl)cc1C(=O)N1Cc2ccc(C(=O)N3CCCN(C)CC3)n2Cc2ccccc21 [Example 60, {10-[(6-Chloro-3-methoxy-2′-methyl[1,1′-biphenyl]-4-yl)carbonyl]-10,11-dihydro-5H-pyrrolo[2,1-c][1,4]benzodiazepin-3-yl}(4-methyl-1,4-diazepan-1-yl)methanone], which IC50 is on record?
**A.** 5.39 nM

**Q.** COc1ccccc1-c1ccc(C(=O)N2Cc3ccc(C(=O)N4CCCN(C)CC4)n3Cc3ccccc32)cc1 [Example 61, {10-[(2′-Methoxy[1,1′-biphenyl]-4-yl)carbonyl]-10,11-dihydro-5H-pyrrolo[2,1-c][1,4]benzodiazepin-3-yl}(4-methyl-1,4-diazepan-1-yl)methanone] was tested. Which IC50 did it give?
**A.** 4.5 nM

**Q.** How did the IC50 turn out when Cc1cc(C(=O)N2Cc3ccc(C(=O)N(C)CCN(C)C)n3Cc3ccccc32)ccc1-c1ccccc1C(F)(F)F [Example 85, N-[2-(Dimethylamino)ethyl]-N-methyl-10-{[2-methyl-2′-(trifluoromethyl)[1,1′-biphenyl]-4-yl]carbonyl}-10,11-dihydro-5H-pyrrolo[2,1-c][1,4]benzodiazepine-3-carboxamide] was run?
**A.** 3.02 nM
